Data: the supplement of paper PMC11208160

Assay: recombinant barcode read abundance after kanamycin selection (control-corrected) (log10(CPM+1)); higher = more efficient recombination; sequences stand for … in AGTGCAGAGAAAATCGGCCAGTTTTCTCTGCCTGCAGTCCGCATGCCGT…AGATTTATGCAGCGGACTGCCTTTCTCCCAAAGTGATAAACCGGACAGTATCATGGACCGGTTTTCCCGGTAATCCGTATTTGCAAGGTTGGTTTCACT; site = the 11-nt target
Method in brief: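 Targets were screened in pooled form in E. coli against IS621 bridge RNA target-binding loops. Recombination efficiency is based on barcode counts at recombinant junctions in counts per million, averaged and corrected for the control. Numbers are shown as log10(CPM+1), with duplicate plates on chloramphenicol/ampicillin LB agar (control) or chloramphenicol/ampicillin/kanamycin with 0.1 mM IPTG.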
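Note: IS621 recombinase and bridge RNA in Escherichia coli cells.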

Sequence	recombinant barcode read abundance (log10)
CGAGGTACTTGGGTTCTAACCTGTTGCAT (site CGAGATCCTAT)	0.0262
CGAGGTACTTGGGTTCTAACCTGTTGCAT (site CGAGGTACTAT)	1.87
CGATACACTTGGGTTCTAACCTGTTGCCG (site CGATACACTCG)	0.571
CGATACACTTGGGTTCTAACCTGTTGCCG (site CGATCCACTCA)	0.052
CGATCACCTTGGGTTCTAACCTGTTGCCT (site CGATCACCTAG)	0.105
CGATCACCTTGGGTTCTAACCTGTTGCCT (site TTCGGCTCTTA)	0.665
CGATCCACTTGGGTTCTAACCTGTTGCTG (site CGATACACTCG)	0.16
CGATCCACTTGGGTTCTAACCTGTTGCTG (site CGATCCACTCA)	0.483
CGATGGACTTGGGTTCTAACCTGTTGCTG (site AAGCTTGCTAG)	0.0171
CGATGGACTTGGGTTCTAACCTGTTGCTG (site CGATGGACTCA)	1.81
CGATTTCCTTGGGTTCTAACCTGTTGCCT (site CGATTTCCTAG)	0.0837
CGATTTCCTTGGGTTCTAACCTGTTGCCT (site CGATTTCCTAT)	0.102
CGCAATGCTTGGGTTCTAACCTGTTGCCT (site CGAAATGCTAG)	0.125
CGCAATGCTTGGGTTCTAACCTGTTGCCT (site CGCAATGCTAG)	0.07
CGCAATGCTTGGGTTCTAACCTGTTGCCT (site CGGAATGCTAG)	0.469
CGCAATGCTTGGGTTCTAACCTGTTGCCT (site CGTAATGCTAG)	0.322
CGCAGCACTTGGGTTCTAACCTGTTGCCT (site AGCAGCACTAG)	0.067
CGCAGCACTTGGGTTCTAACCTGTTGCCT (site CGCAGCACTAG)	0.63
CGCCAGCCTTGGGTTCTAACCTGTTGCCT (site CGCCAGCCTAG)	0.0113
CGCCAGCCTTGGGTTCTAACCTGTTGCCT (site CGCCTGCCTAG)	0
CGCCCTTCTTGGGTTCTAACCTGTTGCCT (site CGCCCTTCTAG)	0.0296
CGCCCTTCTTGGGTTCTAACCTGTTGCCT (site TAAGGGACTTA)	0.0823

Sequence	recombinant barcode read abundance (log10)
CGCCGTACTTGGGTTCTAACCTGTTGCCT (site CGACGTACTAG)	0.264
CGCCGTACTTGGGTTCTAACCTGTTGCCT (site CGCCGTACTAG)	0.405
CGCCGTACTTGGGTTCTAACCTGTTGCCT (site CGGCGTACTAG)	0.349
CGCCGTACTTGGGTTCTAACCTGTTGCCT (site CGTCGTACTAG)	0.0659
CGCCTCACTTGGGTTCTAACCTGTTGCCT (site CGCCTCACTAG)	0.0456
CGCCTCACTTGGGTTCTAACCTGTTGCCT (site CGCCTCCCTAG)	0.152
CGCCTCACTTGGGTTCTAACCTGTTGCCT (site CGCCTCGCTAG)	0.166
CGCCTCACTTGGGTTCTAACCTGTTGCCT (site CGCCTCTCTAG)	0.0333
CGCGAGTCTTGGGTTCTAACCTGTTGCTG (site CGCGAGTCTCA)	0.254
CGCGAGTCTTGGGTTCTAACCTGTTGCTG (site TAATTTGCTAG)	0.142
CGCGCCACTTGGGTTCTAACCTGTTGCCT (site CGCGCCACTAG)	0.383
CGCGCCACTTGGGTTCTAACCTGTTGCCT (site TAGCAGTCTGC)	0.188
CGCGCCTCTTGGGTTCTAACCTGTTGCCG (site CGCGCCTCTCG)	0.0377
CGCGCCTCTTGGGTTCTAACCTGTTGCCG (site GGCCCCTCTCG)	0.362
CGCGGGGCTTGGGTTCTAACCTGTTGCCT (site CGCGCGGCTAG)	0.392
CGCGGGGCTTGGGTTCTAACCTGTTGCCT (site CGCGGGGCTAG)	0.662
CGCGGTCCTTGGGTTCTAACCTGTTGCCT (site CGCGATCCTAG)	0.305
CGCGGTCCTTGGGTTCTAACCTGTTGCCT (site CGCGCTCCTAG)	0.109
CGCGGTCCTTGGGTTCTAACCTGTTGCCT (site CGCGGTCCTAG)	0.0165
CGCGGTCCTTGGGTTCTAACCTGTTGCCT (site CGCGTTCCTAG)	0.084
CGCTAGACTTGGGTTCTAACCTGTTGCCT (site CGCTAGACTAG)	0.13
CGCTAGACTTGGGTTCTAACCTGTTGCCT (site CGCTCGACTAG)	0.0159

Sequence	recombinant barcode read abundance (log10)
CGCTAGACTTGGGTTCTAACCTGTTGCCT (site CGCTGGACTAG)	0.0628
CGCTAGACTTGGGTTCTAACCTGTTGCCT (site CGCTTGACTAG)	0.052
CGCTAGTCTTGGGTTCTAACCTGTTGCCT (site CGCTAGTCTAG)	0.451
CGCTAGTCTTGGGTTCTAACCTGTTGCCT (site CGCTCGTCTAG)	0.22
CGCTAGTCTTGGGTTCTAACCTGTTGCCT (site CGCTGGTCTAG)	0.285
CGCTAGTCTTGGGTTCTAACCTGTTGCCT (site CGCTTGTCTAG)	0.0462
CGCTCATCTTGGGTTCTAACCTGTTGCCT (site CGATCATCTAG)	0.214
CGCTCATCTTGGGTTCTAACCTGTTGCCT (site CGCTCATCTAG)	0.0416
CGCTCATCTTGGGTTCTAACCTGTTGCCT (site CGGTCATCTAG)	0.154
CGCTCATCTTGGGTTCTAACCTGTTGCCT (site CGTTCATCTAG)	0.211
CGCTCGACTTGGGTTCTAACCTGTTGCCT (site CGCTAGACTAG)	0.596
CGCTCGACTTGGGTTCTAACCTGTTGCCT (site CGCTCGACTAG)	0.0944
CGCTCGACTTGGGTTCTAACCTGTTGCCT (site CGCTGGACTAG)	0.188
CGCTCGACTTGGGTTCTAACCTGTTGCCT (site CGCTTGACTAG)	0.0207
CGCTGGCCTTGGGTTCTAACCTGTTGCTT (site CGCTGACCTAA)	0.033
CGCTGGCCTTGGGTTCTAACCTGTTGCTT (site CGCTGCCCTAA)	0.112
CGCTGGCCTTGGGTTCTAACCTGTTGCTT (site CGCTGGCCTAA)	0.162
CGCTGGCCTTGGGTTCTAACCTGTTGCTT (site CGCTGTCCTAA)	0.0658
CGCTTGACTTGGGTTCTAACCTGTTGCCT (site CGCTAGACTAG)	0.0413
CGCTTGACTTGGGTTCTAACCTGTTGCCT (site CGCTCGACTAG)	0.164
CGCTTGACTTGGGTTCTAACCTGTTGCCT (site CGCTGGACTAG)	0.131
CGCTTGACTTGGGTTCTAACCTGTTGCCT (site CGCTTGACTAG)	0.00854

Sequence	recombinant barcode read abundance (log10)
CGCTTTACTTGGGTTCTAACCTGTTGCCG (site CGCTTTACTCG)	0.104
CGCTTTACTTGGGTTCTAACCTGTTGCCG (site TAGACATCTAC)	0.0706
CGGAAATCTTGGGTTCTAACCTGTTGCCT (site CGAAAATCTAG)	0.171
CGGAAATCTTGGGTTCTAACCTGTTGCCT (site CGCAAATCTAG)	0.0224
CGGAAATCTTGGGTTCTAACCTGTTGCCT (site CGGAAATCTAG)	0.127
CGGAAATCTTGGGTTCTAACCTGTTGCCT (site CGTAAATCTAG)	0.0515
CGGAACACTTGGGTTCTAACCTGTTGCGG (site CGGAACACTCC)	2.84
CGGAACACTTGGGTTCTAACCTGTTGCGG (site CGGCACACTCC)	0.755
CGGAACACTTGGGTTCTAACCTGTTGCGG (site CGGGACACTCC)	0.908
CGGAACACTTGGGTTCTAACCTGTTGCGG (site CGGTACACTCC)	1.08
CGGAATGCTTGGGTTCTAACCTGTTGCCT (site CGAAATGCTAG)	0.198
CGGAATGCTTGGGTTCTAACCTGTTGCCT (site CGCAATGCTAG)	0.0762
CGGAATGCTTGGGTTCTAACCTGTTGCCT (site CGGAATGCTAG)	1.38
CGGAATGCTTGGGTTCTAACCTGTTGCCT (site CGTAATGCTAG)	0.0616
CGGACGACTTGGGTTCTAACCTGTTGCCT (site CGGACGACTAG)	0.963
CGGACGACTTGGGTTCTAACCTGTTGCCT (site CGGACGCCTAG)	0.0677
CGGACGACTTGGGTTCTAACCTGTTGCCT (site CGGACGGCTAG)	0.0816
CGGACGACTTGGGTTCTAACCTGTTGCCT (site CGGACGTCTAG)	0.111
CGGAGCCCTTGGGTTCTAACCTGTTGCGG (site AGGAGCCCTTC)	0.0728
CGGAGCCCTTGGGTTCTAACCTGTTGCGG (site CGGAGCCCTCC)	1.82
